Measurements: US20260027226A1 (Pheon Therapeutics Ltd, priority 2022, published 2026)
“Also recorded” adds a separate entry of the source.

Key:
[1] = cited from earlier work
Papain = Papain (a Cathepsin B surrogate); details: up to 96 hours
[2] = system: linear double-stranded TyrT fragment; assay: DNA cross-linking assay; assay type: biochemical; details: overnight incubation at 37° C., 10 μM to 0.1 nM
Description: After overnight incubation, the samples were mixed with 7 μL loading solution (80% formamide containing 10 mM EDTA, 10 mM NaOH, 0.1% bromophenol blue) and incubated at 65° C. for 5 min. Control 1 (C1) for native double-stranded DNA consisted of 1.5 μL labelled DNA, 1.5 μL 10 mM Tris-HCl, pH 7.5 containing 0.1 mM EDTA and 7 μL 1× loading dye. Control 2 (C2) for denatured native single-stranded DNA was composed of 1.5 μL labelled DNA, 1.5 μL 10 mM Tris-HCl, pH 7.5 containing 0.1 mM EDTA which was incubated at 65° C. for 5 min. Control 3 (C3) for native double-stranded DNA consisted of 1.5 μL labelled DNA, 1.5 μL 10 mM Tris-HCl, pH 7.5 containing 0.1 mM EDTA and 7 μL SSB. Control 4 (C4) for denatured native single-stranded DNA was composed of 1.5 μL labelled DNA, 1.5 μL 10 mM Tris-HCl, pH 7.5 containing 0.1 mM EDTA and 7 μL SSB which was incubated at 65° C. for 5 min. Separation was performed on a 7.5% denaturing polyacrylamide gel (20 cm long, 0.3 mm thick) at 500V for about 4 h until the dye reached the bottom of the gel. The gel plates were then separated, the gels fixed by immersing in 10% (v/v) acetic acid, followed by transfer to Whatmann 3 MM paper and drying under vacuum at 80° C. […]
The ability of 26 to cross-link DNA was evaluated using an assay involving a linear double-stranded TyrT fragment (FIG. 17). […]

HexA DNA fragment = assay: DNA footprinting; assay type: binding; details: for DNA-binding site sequence: X any base, W adenine or thymine
Description: Footprinting reactions were performed as using previously described methods using the DNA fragments HexA and HexB, which together contain all 64 symmetrical hexanucleotide sequences, and MS1 that contains all possible […] tetranucleotide sequences. The DNA fragments were obtained by cutting the parent plasmids with HindIII and SacI (for HexA and MS1) or EcoRI and PstI (for HexB), and were labelled at the “-end of the HindIII or EcoRI sites with [α-^32P]dATP using reverse transcriptase or exo− Klenow fragment. After gel purification, the radiolabelled DNA was dissolved in 10 mM Tris-HCl pH 7.5 containing 0.1 mM EDTA, at a concentration of about 10 c.p.s per μL as determined on a hand held Geiger counter. 1.5 μL of radiolabelled DNA was mixed with 1.5 μL ligand that had been freshly diluted in 10 mM Tris-HCl pH 7.5, containing 10 mM NaCl. The complexes were left to equilibrate for at least 12 hours before digesting with 2 μL dNase I (final concentration about 0.01 units/mL). The reactions were stopped after 1 minute by adding 4 μL of formamide containing 10 mM EDTA and bromophenol blue (0.1% w/v). The samples were then heated at 100° C. for 3 minutes before loading onto 8% denaturing polyacrylamide gels containing 8 M urea. Gels were fixed in 10% acetic acid, transferred to 3 MM paper, dried and exposed to a phosphor screen overnight, before analysing with a Typhoon phosphorimager
The DNA sequence selectivity profile of the molecules was investigated using a modification of a previously established DNA footprinting assay. Following an overnight incubation of the ligand-DNA complexes, the mixture was mixed with strand separation buffer containing 10 mM EDTA, 10 mM NaOH, 0.1% bromophenol blue, 80% formamide and incubated at 100° C. for 3 min. The mixture was then immediately cooled on ice and run on an 8% denaturing gel. […] The possible adducts formed within the HexA sequences are shown in FIGS. 20 and 21, respectively.

[3] = Buffer without S9 (50 mM Na-acetate, pH 5.0); details: 37° C., up to 24 h
[4] = Pooled liver S9 fraction, 50 mM Na-acetate, pH 5.0; details: 37° C., up to 24 h
[5] = Comparative repeat-dose rat toxicity study; assay type: in vivo; details: DAR 8 on Trastuzumab backbone, 20 or 60 mg/kg; for tolerability: IV once every 3 weeks, two doses
[6] = Control incubation in buffer without S9; assay type: in vitro ADME
Description: The control incubations include each ADC without the addition of S9.

Adcetris
ADC cyno t112 [1]: 45 to 72 h

1-(3-(2,5-Dioxo-2,5-dihydro-1H-pyrrol-1-yl)propanamido)-N-((2S)-1-(((2S)-1-(((1S,9S)-9-ethyl-5-fluoro-9-hydroxy-4-methyl-10,13-dioxo-2,3,9,10,12,13,13a,14-octahydro-1H-benzo[de]pyrano[″,″:5,6]indeno[1,2-b]quinolin-1-yl)amino)-1-oxopropan-2-yl)amino)-3-methyl-1-oxobutan-2-yl)-3,6,9,12,15,18,21,24-octaoxaheptacosan-27-amide
fragment found (Papain): Val-Ala-Exatecan
not cleaved (Papain): the free payload was not liberated

COc1cc2c(cc1OCCCC(=O)Nc1cc(C(=O)Nc3ccc(-c4cc(C(=O)Nc5ccc(N)cc5)n(C)c4)cc3)n(C)c1)N=C[C@@H]1CCCCN1C2=O [Formula 26, (S)—N-(4-aminophenyl)-4-(4-(4-(4-((2-methoxy-12-oxo-6a,7,8,9,10,12-hexahydrobenzo[e]pyrido[1,2-a][1,4]diazepin-3-yl)oxy)butanamido)-1-methyl-1H-pyrrol-2-carboxamido)phenyl)-1-methyl-1H-pyrrol-2-carboxamide]
DNA interstrand cross-linking [2]: Cross-links are not detectable at any concentration
preferred binding sites in HexA (HexA DNA fragment; DNase I footprinting): only five preferred sites
DNA-binding site sequence (HexA DNA fragment): XGXWWWW

COc1cc2c(cc1OCCCC(=O)Nc1cc(C(=O)Nc3ccc(N)cc3)n(C)c1)N=C[C@@H]1CCCCN1C2=O [Formula 19, (S)—N-(4-Aminophenyl)-4-(4-((2-methoxy-12-oxo-6a,7,8,9,10,12-hexahydrobenzo[e]pyrido[1,2-a][1,4]diazepin-3-yl)oxy)butanamido)-1-methyl-1H-pyrrol-2-carboxamide]
DNA interstrand cross-linking [2]: incapable of cross-linking DNA

Trastuzumab-Mal-GGFG-Dxd
fragment found [3]: DXd, minor, 0 min; also recorded: exatecan, minor
fragment found ([4]; Cynomolgus monkey): DXd, minor, 0 min; also recorded: Cys-Mc-GGFG-DXd; also recorded: exatecan, minor
fragment found ([4]; Human): DXd, 0 min; also recorded: Cys-Mc-GGFG-DXd; also recorded: exatecan, minor

CC[C@@]1(O)C(=O)OCc2c1cc1n(c2=O)Cc2c-1nc1cc(F)c(C)c3c1c2[C@@H](NC(=O)[C@H](C)NC(=O)[C@@H](NC(=O)CCOCCOCCOCCOCCOCCOCCOCCOCCNC(=O)CCN1C(=O)C=CC1=O)C(C)C)CC3 [Compound 30, 1-(3-(2,5-Dioxo-2,5-dihydro-1H-pyrrol-1-yl)propanamido)-N-((2S)-1-(((2S)-1-(((1S,9S)-9-ethyl-5-fluoro-9-hydroxy-4-methyl-10,13-dioxo-2,3,9,10,12,13,13a,14-octahydro-1H-benzo[de]pyrano[″,″:5,6]indeno[1,2-b]quinolin-1-yl)amino)-1-oxopropan-2-yl)amino)-3-methyl-1-oxobutan-2-yl)-3,6,9,12,15,18,21,24-octaoxaheptacosan-27-amide]
changes in hemopoietic system / red cell parameters [5]: negligible effects
tolerability [5]: well tolerated
LC/MS peak area of released payload (exatecan; 4NH2-exatecan; DXd; DM1) ([6]; Buffer without S9, 180 min): 26,179
LC/MS peak area of released payload (exatecan; 4NH2-exatecan; DXd; DM1) ([6]; Buffer without S9, 360 min): 51,267
LC/MS peak area of released payload (exatecan; 4NH2-exatecan; DXd; DM1) ([6]; Buffer without S9, 1440 min): 59,452

CC[C@@]1(O)C(=O)OCc2c1cc1n(c2=O)Cc2c-1nc1cc(F)c(C)c3c1c2[C@@H](NC(=O)CO)CC3 [Dxd, reference compound]
tolerability [5]: well tolerated

C=CCOC(=O)N1c2cc(OCCCC(=O)Nc3cc(C(=O)Nc4ccc(NC(=O)C(F)(F)F)cc4)n(C)c3)c(OC)cc2C(=O)N2CCCC[C@H]2C1OC1CCCCO1 (stereo partly drawn) [Formula 17, Allyl (6aS)-2-methoxy-3-(4-((1-methyl-5-((4-(2,2,2-trifluoroacetamido)phenyl)carbamoyl)-1H-pyrrol-3-yl)amino)-4-oxobutoxy)-12-oxo-6-((tetrahydro-2H-pyran-2-yl)oxy)-6,6a,7,8,9,10-hexahydrobenzo[e]pyrido[1,2-a][1,4]diazepine-5(12H)-carboxylate]
DNA-binding site sequence (HexA DNA fragment): XGXWWWW
